Laboratory results taken from patent US20230295234A1, “ANTIMICROBIAL PEPTIDOMIMETICS” (SPEXIS AG, priority 2020, published 2023).
Where two headings read alike, the source gives them in different places. Bridge positions count the residues as written; N and C are the ends. Square brackets hold non-standard residues; d marks the D form. Peptide text beside a SMILES is read from it. Pro(4R-NH2) = N[C@H]1CN[C@H](C(=O)O)C1; Hyp = O=C(O)[C@@H]1C[C@@H](O)CN1; Pen = CC(C)(S)[C@H](N)C(=O)O; dDab = NCC[C@@H](N)C(=O)O; Dab = NCC[C@H](N)C(=O)O; Nlys = NCCCCNCC(=O)O

Legend:
[1] = test system: Klebsiella pneumoniae SSI3010; settings: SSI3010
How it was run: (§1)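 Two-fold serial dilutions of peptide, in water with polysorbate 80 (0.002% final), met bacteria adjusted to 0.5 McFarland then diluted to about 5×10^5 CFU/mL. Medium was cation-adjusted Mueller-Hinton II broth; peptide stocks were 1 mg/mL in sterile water.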

[2] = test system: Escherichia coli ATCC 25922; settings: ATCC 25922
How it was run: as §1

[3] = test system: Escherichia coli MCR-1 Af 45
How it was run: as §1

[4] = test system: human red blood cells (hRBC); experiment: Hemolysis of human red blood cells; assay type: cell-based; settings: red cells of human, 1 h
How it was run: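 PBS-washed human red blood cells (20% v/v) were incubated with peptide at 200 μg/mL for 1 h at 37 °C with shaking. Supernatant OD was read at 540 nm after 8-fold dilution. Hemolysis is expressed as percent of the water control.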

Row | SMILES | Klebsiella pneumoniae SSI3010 MIC [1] | Escherichia coli ATCC 25922 MIC [2] | Escherichia coli MCR-1 Af 45 MIC ([3]; MCR-1 Af 45) | Hemolysis at 0.2 g/L [4] | Escherichia coli MCR-1 Af 45 MIC ([3]; Mueller-Hinton broth II, 18-20 hours at 35° C.)
1 | CC[C@H](C)[C@H](NC(=O)[C@@H](NC(=O)[C@@H]1CCCN1C(=O)[C@@H](NC(=O)CNCCN)C(C)C)[C@@H](C)CC)C(=O)N[C@@H](Cc1ccc(O)cc1)C(=O)N[C@@H]1C(=O)N[C@@H](CC(N)=O)C(=O)N[C@@H](CCCNC(=N)N)C(=O)N[C@@H](CCN)C(=O)N[C@@H]([C@@H](C)O)C(=O)N[C@H](CCN)C(=O)N[C@@H](CCCCN)C(=O)N[C@H](C(=O)N[C@@H](CCN)C(=O)N[C@@H](CCCNC(=N)N)C(=O)N[C@@H](Cc2ccc(O)cc2)C(=O)O)CSSC1(C)C [Example 27, Ndab-Val-Pro-Ile-Ile-Tyr-Pen-Asn-Arg-Dab-Thr-^DDab-Lys-Cys-Dab-Arg-Tyr] (HELM PEPTIDE1{[NCCNCC(=O)[*:2]].V.P.I.I.Y.[Pen].N.R.[Dab].T.[NCC[C@@H](N[*:1])C(=O)[*:2]].K.C.[Dab].R.Y}$PEPTIDE1,PEPTIDE1,7:R3-14:R3$$$V2.0) | 0.125 µg/mL | 0.0625 µg/mL | 0.0625 µg/mL | 0% | 
2 | CC[C@H](C)[C@H](NC(=O)[C@@H]1C[C@@H](O)CN1C(=O)[C@@H](NC(=O)[C@@H]1C[C@@H](N)CN1C(=O)CNCCCCN)C(C)C)C(=O)N[C@H](C(=O)N[C@@H](Cc1ccc(O)cc1)C(=O)N[C@@H]1C(=O)N[C@@H](CC(N)=O)C(=O)N[C@@H](CCCNC(=N)N)C(=O)N[C@@H](CCN)C(=O)N[C@@H]([C@@H](C)O)C(=O)N[C@H](CCN)C(=O)N[C@@H](CCCCN)C(=O)N[C@H](C(=O)N[C@@H](Cc2ccc(O)cc2)C(=O)N[C@@H](CCCNC(=N)N)C(=O)N[C@@H](Cc2ccc(O)cc2)C(=O)O)CSSC1(C)C)[C@@H](C)O [Example 59, Nlys-Pro((4R)NH2)-Val-Hyp-Ile-Thr-Tyr-Pen-Asn-Arg-Dab-Thr-^DDab-Lys-Cys-Tyr-Arg-Tyr] (H-[Nlys][Pro(4R-NH2)]V[Hyp]ITY[Pen]NR[Dab]T[dDab]KCYRY-OH; disulfide 8-15; N-terminus and C-terminus assumed) | 0.25 µg/mL | 0.25 µg/mL | 0.125 µg/mL | 0% | 
3 | CC[C@H](C)[C@H](NC(=O)[C@@H]1C[C@@H](O)CN1C(=O)[C@@H](N)C(C)C)C(=O)N[C@H](C(=O)N[C@@H](Cc1ccc(O)cc1)C(=O)N[C@@H]1C(=O)N[C@@H](CC(N)=O)C(=O)N[C@@H](CCCNC(=N)N)C(=O)N[C@@H](CCN)C(=O)N[C@@H]([C@@H](C)O)C(=O)N[C@H](CCN)C(=O)N[C@@H](CCCCN)C(=O)N[C@H](C(=O)N[C@@H](CCN)C(=O)N[C@@H](CC(C)C)C(=O)N[C@@H](Cc2ccc(O)cc2)C(=O)O)CSSC1(C)C)[C@@H](C)O [Example 175] (HELM PEPTIDE1{V.[Hyp].I.T.Y.[Pen].N.R.[Dab].T.[NCC[C@@H](N[*:1])C(=O)[*:2]].K.C.[Dab].L.Y}$PEPTIDE1,PEPTIDE1,6:R3-13:R3$$$V2.0) | 0.5 µg/mL | 0.25 µg/mL |  | 0% | 0.25 µg/mL
